Data taken from patent US5190975A, “Indan derivatives used for treating thromboses or asthma” (Tanabe Seiyaku Co., Ltd., priority 1987, dated 1993).

Tests used:
[1] = tested on: TxA2; conditions: Thrombosis Research, 35, 379-395, 1984; cited from earlier work
[2] = tested on: arachidonic acid-induced pulmonary embolism; experiment: Inhibiting effect on arachidonic acid-induced pulmonary embolism (in vivo); parameters: species or system ddy-male mice; conditions: Mus musculus; dose required to shorten the recovery time by at least 15% as compared with the control group; oral, 3 hours before arachidonic acid 125 mg/kg, mice
Procedure: Inhibiting effect on arachidonic acid-induced pulmonary embolism (in vivo):
A test compound in an aqueous carboxymethylcellulose solution (20 ml/kg) was orally administered to ddy-male mice fasted overnight. Three hours later, arachidonic acid (125 mg/kg) was injected to the tail vein of mice to induce pulmonary embolism, and the recovery time (minute) of locomotive activity of the mice was compared with that of a control group of mice to which a 0.25% aqueous CMC solution was administered instead of the test compound solution. The inhibiting effect of each test compound on arachidonic acid-induced pulmonary embolism was estimated in terms of the dose required to shorten the recovery time by at least 15% as compared with the control group.

SMILES | TxA2-antagonistic activity [1] | ED15 [2] [mg/kg]
O=C(O)COc1ccc(CCNS(=O)(=O)c2ccccc2)cc1 [Control, 4-(2-Benzensulfonylaminoethyl)phenoxyacetic acid] | has TxA2 -antagonistic activity | 30
O=C(O)CCNC(=O)Cc1ccc2c(c1)CC(NS(=O)(=O)c1ccc(Cl)cc1)C2 (stereo not shown) [Example 1] |  | 0.03
O=C(O)CCCNC(=O)Cc1ccc2c(c1)CC(NS(=O)(=O)c1ccc(Cl)cc1)C2 (stereo not shown) [Example 2] |  | 0.03
